According to US20210108199A1, “Treatment for aggressive cancers by targeting C9ORF72” (The Trustees of Columbia University in the City of New York, priority 2017, published 2021):

Columns and labels:
Type in all cases: cell-based
[1] = system: U87 cells; assay: Mitochondrial imaging (MitoTracker) and MiNA quantitation
Experimental: Mitchondria imaging in U87 cell was performed with MitoTracker™ Red CMXRos (ThermoFisher™, M7512) according to the manufacturer's protocol. Cells then were imaged as described herein.
Quantitation was performed using a publicly available macro MiNA for ImageJ™ as described.
The vacuoles were studied to investigate whether they are swollen mitochondria, because several reports observed vacuolated mitochondria in ALS patients and mice models that resemble the phenotype seen here. A fluorescent mitochondrial dye was used to visualize mitochondria upon C9 KD. […] See FIG. 5A and FIG. 5B, which show an IF image of U87 cells treated as in Example 1 and stained with MitoTracker (red) and nuclei stained with DAPI (blue).
To obtain the data seen in FIG. 6, the stained mitochondria from FIG. 5 were IF stained and analyzed using MiNA software for ImageJ™.

[2] = system: HeLa cells; assay: Mitochondrial live imaging in HeLa cells; conditions: vs control
Experimental: Mitochondrial accumulation then was investigated in other cell lines. C9 KD was performed in HeLa cells, followed by a fluorescent mitochondrial dye for live imaging. […] To study the mitochondrial dysfunction phenotype upon C9 KD in a non-cancer cell line, C9 was knocked down in rat-derived cortical neurons in combination with a mitochondrial stain.

[3] = system: U87 cells; assay: Dextran measurement of macropinocytosis; conditions: fluorescein dextran
Experimental: U87 cells were treated with control and C9 siRNA for a total of 3 days. At day 2, cells were treated with a final concentration of 20 μM dextran and incubased overnight. On day 3, cells were washed with phenol red-free DMEM and then imaged using excitation/emission for fluorescein (494/521) on an LSM 700; Carl Zeiss™ microscope.
In this study, a fluid phase marker, fluorescein dextran, was added to the media. If the vacuoles are macropinosomes, the marker will be taken up and internalized, resulting in green fluorescent macropinocytosis.
The right images are a merge between the left and middle images. The scale bar represents 10 μm. White arrows indicate the position of vacuoles. In FIG. 8, the upper panels are fluorescent images (Alexa™ 488) of U87 cells treated with control (siCtrl) and C9 (siC9; SEQ ID NO:631) siRNA as indicated incubated in fluorescein dextran (green). The lower panels are the same cells imaged in phase contrast.

[4] = system: p53 null U87 cells; assay: Mitochondrial imaging in p53 null U87 clones; conditions: p53 KO U87 clones KO #4 and KO #9
Text: C9 then was knocked down in two p53 KO U87 cells lines which were imaged to show whether mitochondrial disorganization depends on p53. […] FIG. 38 is a set of confocal microscopy images of two p53 null U87 clones (KO #4 and KO #9) treated with control and C9 siRNA, stained with Mitotracker red.

## siC9: siRNA targeting C9 mRNA: UUAAUGAAACAAUAAUCACUC (SEQ ID NO:631; sense) and GUGAUUAUUGUUUCAUUAAUC (SEQ ID NO:632; antisense) (listed as RNA, chemistry not given here)
[1]; MiNA
  total amount of individual and networked mitochondria staining: increased
[1]; MitoTracker
  mitochondrial dye staining of vacuoles: did not stain red
[1]; vs control
  mitochondrial network organization: significant mitochondrial network disorganization
[2]
  mitochondrial network organization: mitochondrial network disorganization
[3]
  dextran in vacuoles: formation of vacuoles filled with dextran
[4]
  mitochondrial organization: caused mitochondrial disorganization
